Measurements: article PMC5218480 (PLoS ONE, 2017)

Tested on: MV-4-11 cells
Test: Gene expression microarray analysis (Affymetrix PrimeView) and GSEA
Type: cell-based, human
Parameters: RFU PODN (11730768_x_at) / Fold change /veh PODN (11730768_x_at) / RFU LINC00158 (11744669_a_at) / Fold change /veh LINC00158 (11744669_a_at) / RFU DUSP10 (11751237_a_at) / Fold change /veh DUSP10 (11751237_a_at) / RFU ID3 (11757404_x_at) / Fold change /veh ID3 (11757404_x_at) / RFU PLEKHG5 (11737974_s_at) / Fold change /veh PLEKHG5 (11737974_s_at) / RFU LRRC4B (11730491_at) / Fold change /veh LRRC4B (11730491_at) / RFU GIMAP4 (11747438_a_at) / Fold change /veh GIMAP4 (11747438_a_at) / RFU KRT8 (11758183_x_at) / Fold change /veh KRT8 (11758183_x_at) / RFU CNN1 (11734310_a_at) / Fold change /veh CNN1 (11734310_a_at) / RFU VPS37D (11726825_at) / Fold change /veh VPS37D (11726825_at) / RFU C10orf10 (11716522_x_at) / Fold change /veh C10orf10 (11716522_x_at) / RFU KIR2DL2 /// KIR2DL4 /// KIR2DL5A /// KIR2DL5B /// KIR2DS1 /// KIR2DS2 /// KIR2DS3 /// KIR2DS4 /// KIR3DL3 /// KIR3DL3 /// KIR3DS1 (11738374_at) / Fold change /veh KIR2DL2 /// KIR2DL4 /// KIR2DL5A /// KIR2DL5B /// KIR2DS1 /// KIR2DS2 /// KIR2DS3 /// KIR2DS4 /// KIR3DL3 /// KIR3DL3 /// KIR3DS1 (11738374_at) / RFU C1QL1 (11718748_at) / Fold change /veh C1QL1 (11718748_at) / RFU TMPRSS4 (11747572_a_at) / Fold change /veh TMPRSS4 (11747572_a_at) / RFU HAMP (11756126_x_at) / Fold change /veh HAMP (11756126_x_at) / RFU RNFT2 (11725882_a_at) / Fold change /veh RNFT2 (11725882_a_at) / RFU NR4A2 (11747474_a_at) / Fold change /veh NR4A2 (11747474_a_at) / RFU ABCC12 (11746883_a_at) / Fold change /veh ABCC12 (11746883_a_at) / RFU TMEM136 (11760407_x_at) / Fold change /veh TMEM136 (11760407_x_at) / RFU CLDN22 /// WWC2 (11732394_at) / Fold change /veh CLDN22 /// WWC2 (11732394_at) / RFU HLA-DPB1 (11760878_x_at) / Fold change /veh HLA-DPB1 (11760878_x_at) / RFU SPINT1 (11716480_a_at) / Fold change /veh SPINT1 (11716480_a_at) / RFU GAP43 (11754022_s_at) / Fold change /veh GAP43 (11754022_s_at) / RFU A4GNT (11735810_at) / Fold change /veh A4GNT (11735810_at) / RFU PRB3 (11715151_x_at) / Fold change /veh PRB3 (11715151_x_at) / RFU TUBB4B (11761932_at) / Fold change /veh TUBB4B (11761932_at) / RFU CAPN14 (11732068_a_at) / Fold change /veh CAPN14 (11732068_a_at) / RFU TMCC2 (11721928_a_at) / Fold change /veh TMCC2 (11721928_a_at) / RFU IRGQ (11745062_a_at) / Fold change /veh IRGQ (11745062_a_at) / RFU FAM174B (11720279_a_at) / Fold change /veh FAM174B (11720279_a_at) / RFU TMPRSS4 (11748680_a_at) / Fold change /veh TMPRSS4 (11748680_a_at) / RFU FAM212B (11763350_a_at) / Fold change /veh FAM212B (11763350_a_at) / RFU PLEKHG5 (11743358_a_at) / Fold change /veh PLEKHG5 (11743358_a_at) / RFU ZSCAN30 (11745921_a_at) / Fold change /veh ZSCAN30 (11745921_a_at) / RFU CMKLR1 (11741424_a_at) / Fold change /veh CMKLR1 (11741424_a_at) / RFU LOC101060620 /// MAPK8IP1 (11723275_at) / Fold change /veh LOC101060620 /// MAPK8IP1 (11723275_at) / RFU SPTSSB (11747773_x_at) / Fold change /veh SPTSSB (11747773_x_at) / RFU PRSS12 (11739890_at) / Fold change /veh PRSS12 (11739890_at) / RFU BIN1 (11741810_x_at) / Fold change /veh BIN1 (11741810_x_at) / RFU WNT11 (11732464_a_at) / Fold change /veh WNT11 (11732464_a_at) / RFU C10orf10 (11716521_a_at) / Fold change /veh C10orf10 (11716521_a_at) / RFU C5orf56 (11738089_at) / Fold change /veh C5orf56 (11738089_at) / RFU CYB561 (11721691_x_at) / Fold change /veh CYB561 (11721691_x_at) / RFU ANKRD19P (11752326_a_at) / Fold change /veh ANKRD19P (11752326_a_at) / RFU OR2T12 /// OR2T33 /// OR2T8 (11738714_s_at) / Fold change /veh OR2T12 /// OR2T33 /// OR2T8 (11738714_s_at) / RFU VCAN (11748164_a_at) / Fold change /veh VCAN (11748164_a_at) / RFU JSRP1 (11732532_at) / Fold change /veh JSRP1 (11732532_at) / RFU KRTAP10-11 (11738290_x_at) / Fold change /veh KRTAP10-11 (11738290_x_at) / RFU MYO3A (11730013_a_at) / Fold change /veh MYO3A (11730013_a_at) / RFU EBF3 (11725865_a_at) / Fold change /veh EBF3 (11725865_a_at) / RFU CAMK2N1 (11719241_x_at) / Fold change /veh CAMK2N1 (11719241_x_at) / RFU C5orf56 (11738088_a_at) / Fold change /veh C5orf56 (11738088_a_at) / RFU OLFML3 (11715873_a_at) / Fold change /veh OLFML3 (11715873_a_at) / RFU LOC100653217 /// NTM (11731650_a_at) / Fold change /veh LOC100653217 /// NTM (11731650_a_at) / RFU MAPK11 (11762145_a_at) / Fold change /veh MAPK11 (11762145_a_at) / RFU FIZ1 (11724087_x_at) / Fold change /veh FIZ1 (11724087_x_at) / RFU OASL (11726364_x_at) / Fold change /veh OASL (11726364_x_at) / RFU SOX15 (11748057_x_at) / Fold change /veh SOX15 (11748057_x_at) / RFU CD79A (11719716_a_at) / Fold change /veh CD79A (11719716_a_at) / RFU HIST1H1D (11736915_at) / Fold change /veh HIST1H1D (11736915_at) / RFU CASKIN2 (11723855_a_at) / Fold change /veh CASKIN2 (11723855_a_at) / RFU LOC730098 (11760151_x_at) / Fold change /veh LOC730098 (11760151_x_at) / RFU OR4N2 (11742367_at) / Fold change /veh OR4N2 (11742367_at) / RFU PRRT2 (11749266_a_at) / Fold change /veh PRRT2 (11749266_a_at) / RFU SNX32 (11753110_a_at) / Fold change /veh SNX32 (11753110_a_at) / RFU CDHR5 (11726645_a_at) / Fold change /veh CDHR5 (11726645_a_at) / RFU RCAN1 (11760418_a_at) / Fold change /veh RCAN1 (11760418_a_at) / RFU FAM167A (11723789_a_at) / Fold change /veh FAM167A (11723789_a_at) / RFU FAM26E (11764081_at) / Fold change /veh FAM26E (11764081_at) / RFU ISYNA1 (11749810_s_at) / Fold change /veh ISYNA1 (11749810_s_at) / RFU ACY1 (11761880_at) / Fold change /veh ACY1 (11761880_at) / RFU 11764098_at / Fold change /veh 11764098_at / RFU SAMD14 (11745864_x_at) / Fold change /veh SAMD14 (11745864_x_at) / RFU NPB (11741838_a_at) / Fold change /veh NPB (11741838_a_at) / RFU TMPRSS6 (11731388_a_at) / Fold change /veh TMPRSS6 (11731388_a_at) / RFU KRTAP10-2 (11738614_at) / Fold change /veh KRTAP10-2 (11738614_at) / RFU ARHGAP8 /// PRR5-ARHGAP8 (11727945_x_at) / Fold change /veh ARHGAP8 /// PRR5-ARHGAP8 (11727945_x_at) / RFU KRTAP5-7 /// NADSYN1 (11734609_at) / Fold change /veh KRTAP5-7 /// NADSYN1 (11734609_at) / RFU RASL12 (11751679_a_at) / Fold change /veh RASL12 (11751679_a_at) / RFU CDKN2B (11736163_a_at) / Fold change /veh CDKN2B (11736163_a_at) / RFU PRF1 (11729649_at) / Fold change /veh PRF1 (11729649_at) / RFU, ZNF638 /// ZNF638-IT1 / Fold change vs veh, ZNF638 /// ZNF638-IT1 / RFU, PANK3 / Fold change vs veh, PANK3 / RFU, SH3YL1 / Fold change vs veh, SH3YL1 / RFU, ZEB2 / Fold change vs veh, ZEB2 / RFU, NRIP1 / Fold change vs veh, NRIP1 / RFU, PTTG1IP / Fold change vs veh, PTTG1IP / RFU, CAPN2 / Fold change vs veh, CAPN2 / RFU, MED14 / Fold change vs veh, MED14 / RFU, SNORA58 / Fold change vs veh, SNORA58 / RFU, C1orf63 / Fold change vs veh, C1orf63 / RFU, LRRFIP1 / Fold change vs veh, LRRFIP1 / RFU, NDUFAF7 / Fold change vs veh, NDUFAF7 / RFU, SLC12A2 / Fold change vs veh, SLC12A2 / RFU, IBTK / Fold change vs veh, IBTK / RFU, ESF1 / Fold change vs veh, ESF1 / Fold change vs veh, TMEM50B / RFU, TAOK1 / Fold change vs veh, TAOK1 / RFU, ACBD3 / Fold change vs veh, ACBD3 / RFU, TMA16 / Fold change vs veh, TMA16 / RFU, RWDD3 / Fold change vs veh, RWDD3 / RFU, BCAT1 / Fold change vs veh, BCAT1 / RFU, EDEM3 / Fold change vs veh, EDEM3 / RFU, TMEM33 / Fold change vs veh, TMEM33 / RFU, WDR75 / Fold change vs veh, WDR75 / RFU, AHCTF1 / Fold change vs veh, AHCTF1 / RFU, TFRC / Fold change vs veh, TFRC / RFU, ZDHHC17 / Fold change vs veh, ZDHHC17 / RFU, NOM1 / Fold change vs veh, NOM1 / RFU, ARL8B / Fold change vs veh, ARL8B / RFU, ZBTB11 / Fold change vs veh, ZBTB11 / RFU, TAMM41 / Fold change vs veh, TAMM41 / RFU, KIAA1704 /// LOC100996395 / Fold change vs veh, KIAA1704 /// LOC100996395 / RFU, ING1 / Fold change vs veh, ING1 / RFU, TRMT61B / Fold change vs veh, TRMT61B / RFU, FUBP3 / Fold change vs veh, FUBP3 / RFU, TP53 / Fold change vs veh, TP53 / RFU, TNKS2 / Fold change vs veh, TNKS2 / RFU, ZFP14 / Fold change vs veh, ZFP14 / RFU, ACTR2 / Fold change vs veh, ACTR2 / RFU, PPP3R1 / Fold change vs veh, PPP3R1 / RFU, PIK3R1 / Fold change vs veh, PIK3R1 / RFU, HNRNPA1 / Fold change vs veh, HNRNPA1 / RFU, RNF170 / Fold change vs veh, RNF170 / RFU, ZNF28 / Fold change vs veh, ZNF28 / RFU, RNGTT / Fold change vs veh, RNGTT / RFU, OGT / Fold change vs veh, OGT / RFU, BRD1 / Fold change vs veh, BRD1 / RFU, MARS / Fold change vs veh, MARS / RFU, ZNF655 / Fold change vs veh, ZNF655 / RFU, FAHD1 / Fold change vs veh, FAHD1 / RFU, BDP1 / Fold change vs veh, BDP1 / RFU, LRRCC1 / Fold change vs veh, LRRCC1 / RFU, ARID1A / Fold change vs veh, ARID1A / RFU, ZNF146 / Fold change vs veh, ZNF146 / RFU, ZNF330 / Fold change vs veh, ZNF330 / RFU, GPN3 / Fold change vs veh, GPN3 / RFU, C9orf123 / Fold change vs veh, C9orf123 / RFU, N4BP2L2 / Fold change vs veh, N4BP2L2 / RFU, ARFIP1 / Fold change vs veh, ARFIP1 / RFU, FAM179B / Fold change vs veh, FAM179B / RFU, BCL10 / Fold change vs veh, BCL10 / RFU, UHRF1BP1L / Fold change vs veh, UHRF1BP1L / RFU, BET1 / Fold change vs veh, BET1 / RFU, CNOT2 / Fold change vs veh, CNOT2 / RFU, ZNF268 / Fold change vs veh, ZNF268 / Fold change vs veh, ZNF507 / RFU, DGCR2 / Fold change vs veh, DGCR2 / RFU, WDSUB1 / Fold change vs veh, WDSUB1 / Fold change vs veh, HSP90B1 /// MIR3652 / RFU, ADSS / Fold change vs veh, ADSS / RFU, GK / Fold change vs veh, GK / RFU, ZNF148 / Fold change vs veh, ZNF148 / RFU, TAF9 / Fold change vs veh, TAF9 / RFU, SLC1A5 / Fold change vs veh, SLC1A5 / RFU, SLMO2 / Fold change vs veh, SLMO2 / RFU, ABCC4 / Fold change vs veh, ABCC4 / RFU, LOC101060439 /// RAP1B / Fold change vs veh, LOC101060439 /// RAP1B / RFU, RFX7 / Fold change vs veh, RFX7 / RFU, GTPBP10 / Fold change vs veh, GTPBP10 / RFU, CNEP1R1 / Fold change vs veh, CNEP1R1 / RFU, BIVM-ERCC5 /// ERCC5 / Fold change vs veh, BIVM-ERCC5 /// ERCC5 / RFU, ILF3 / Fold change vs veh, ILF3 / RFU 11762660_at / Fold change /veh 11762660_at / RFU VCAN (11757783_s_at) / Fold change /veh VCAN (11757783_s_at) / RFU DDX43 (11728927_at) / Fold change /veh DDX43 (11728927_at) / RFU KRT8 (11758188_x_at) / Fold change /veh KRT8 (11758188_x_at) / RFU NKD1 (11759106_at) / Fold change /veh NKD1 (11759106_at) / RFU SRD5A1 (11742802_a_at) / Fold change /veh SRD5A1 (11742802_a_at) / RFU TPSAB1 /// TPSB2 (11721975_s_at) / Fold change /veh TPSAB1 /// TPSB2 (11721975_s_at) / RFU GSTM3 (11746129_a_at) / Fold change /veh GSTM3 (11746129_a_at) / RFU IL23R (11737362_x_at) / Fold change /veh IL23R (11737362_x_at) / RFU TMEM51 (11727254_a_at) / Fold change /veh TMEM51 (11727254_a_at) / RFU PIWIL2 (11732686_x_at) / Fold change /veh PIWIL2 (11732686_x_at) / RFU ORM1 (11744905_x_at) / Fold change /veh ORM1 (11744905_x_at) / RFU CCDC152 (11743942_at) / Fold change /veh CCDC152 (11743942_at) / RFU ECM1 (11717891_a_at) / Fold change /veh ECM1 (11717891_a_at) / RFU IL23R (11748794_a_at) / Fold change /veh IL23R (11748794_a_at) / RFU TNFAIP8L3 (11732012_x_at) / Fold change /veh TNFAIP8L3 (11732012_x_at) / RFU MBOAT4 (11741988_at) / Fold change /veh MBOAT4 (11741988_at) / RFU 11764193_at / Fold change /veh 11764193_at / RFU TMEM53 (11763286_at) / Fold change /veh TMEM53 (11763286_at) / RFU MAGEB2 (11727129_at) / Fold change /veh MAGEB2 (11727129_at) / RFU TMEM200A (11744735_a_at) / Fold change /veh TMEM200A (11744735_a_at) / RFU CCDC152 (11751479_a_at) / Fold change /veh CCDC152 (11751479_a_at) / RFU FAM211A (11726209_a_at) / Fold change /veh FAM211A (11726209_a_at) / RFU RGS16 (11746705_a_at) / Fold change /veh RGS16 (11746705_a_at) / RFU VCAN (11755009_s_at) / Fold change /veh VCAN (11755009_s_at) / RFU RHOB (11743442_s_at) / Fold change /veh RHOB (11743442_s_at) / RFU RGS16 (11720943_a_at) / Fold change /veh RGS16 (11720943_a_at) / RFU RGS16 (11720944_at) / Fold change /veh RGS16 (11720944_at) / RFU, VPS4B / Fold change vs veh, VPS4B / RFU, CREB1 / Fold change vs veh, CREB1 / RFU, DNAJC13 / Fold change vs veh, DNAJC13 / RFU, GNAQ / Fold change vs veh, GNAQ / RFU, CDK5R1 / Fold change vs veh, CDK5R1 / RFU, ZRANB3 / Fold change vs veh, ZRANB3 / RFU, CUL4A / Fold change vs veh, CUL4A / RFU, CCNY / Fold change vs veh, CCNY / RFU, UFL1 / Fold change vs veh, UFL1 / RFU, COG3 / Fold change vs veh, COG3 / RFU, DIAPH2 / Fold change vs veh, DIAPH2 / RFU, SKA2 / Fold change vs veh, SKA2 / RFU, AFF3 / Fold change vs veh, AFF3 / RFU, LMF1 / Fold change vs veh, LMF1 / RFU, IPO11 / Fold change vs veh, IPO11 / RFU, DFFB / Fold change vs veh, DFFB / RFU, FOXP1 / Fold change vs veh, FOXP1 / RFU, CARD8 / Fold change vs veh, CARD8 / RFU, STRN3 / Fold change vs veh, STRN3 / RFU, ADK / Fold change vs veh, ADK / RFU, RASSF2 / Fold change vs veh, RASSF2 / RFU, WIPF1 / Fold change vs veh, WIPF1 / RFU, LARP1B / Fold change vs veh, LARP1B / RFU, RASA1 / Fold change vs veh, RASA1 / RFU, RB1 / Fold change vs veh, RB1 / RFU, PPFIA1 / Fold change vs veh, PPFIA1 / RFU, MAT2A / Fold change vs veh, MAT2A / RFU, CCT5 / Fold change vs veh, CCT5 / RFU, WDR92 / Fold change vs veh, WDR92 / RFU, CUX1 / Fold change vs veh, CUX1 / RFU, TTC7A / Fold change vs veh, TTC7A / RFU, TMEM135 / Fold change vs veh, TMEM135 / RFU, DEPTOR / Fold change vs veh, DEPTOR / RFU, CPM / Fold change vs veh, CPM / RFU, DNAJB6 / Fold change vs veh, DNAJB6 / RFU, CACNA2D3 / Fold change vs veh, CACNA2D3 / RFU, DTX4 / Fold change vs veh, DTX4 / RFU, TFCP2 / Fold change vs veh, TFCP2 / RFU, GMCL1 /// GMCL1P1 / Fold change vs veh, GMCL1 /// GMCL1P1 / RFU, AEBP2 / Fold change vs veh, AEBP2 / RFU, SNHG1 /// SNORD22 /// SNORD25 /// SNORD26 /// SNORD27 /// SNORD28 /// SNORD29 /// SNORD31 / Fold change vs veh, SNHG1 /// SNORD22 /// SNORD25 /// SNORD26 /// SNORD27 /// SNORD28 /// SNORD29 /// SNORD31 / Fold change (Aza/veh), C12orf56 (ProbeSet 11735607_a_at) / Fold change (ACY-1035/veh), C12orf56 (ProbeSet 11735607_a_at) / Fold change (Aza/veh), FGFR1OP (ProbeSet 11751329_s_at) / Fold change (ACY-1035/veh), FGFR1OP (ProbeSet 11751329_s_at) / Fold change (Aza/veh), VPS36 (ProbeSet 11739960_a_at) / Fold change (ACY-1035/veh), VPS36 (ProbeSet 11739960_a_at) / RFU SYPL1 (11715823_x_at) / Fold change /veh SYPL1 (11715823_x_at) / RFU IGFBP7 (11715501_s_at) / Fold change /veh IGFBP7 (11715501_s_at) / RFU REEP3 (11722064_at) / Fold change /veh REEP3 (11722064_at) / RFU IGLL1 (11728026_x_at) / Fold change /veh IGLL1 (11728026_x_at): dose or concentration left out as unconfirmed
Conditions: ProbeSet 11755070_a_at; LIST D

Nc1ccc(-c2cccs2)cc1NC(=O)c1ccc2c(c1)cc(C1CC1)n2CCN1CCOCC1 [ACY-1035]
RFU, CARD8: 173.18 RFU
